Values after ≈ are worked out from the molar mass of the structure shown.
Tested on: MDA-MB-231
Experiment: Cytotoxicity against human MDA-MB-231 cells by MTT assay
Assay type: functional, cell-based

C[C@H]1CC[C@H]2[C@@H]3CC(=O)[C@H](Cn4c(O)nc5c(O)ncnc54)[C@@]13CC2(C)C
IC50: 8.87 µg/mL (≈ 23.9 µM)

From ChEMBL document CHEMBL1149842, “Purine alkaloids from the South China Sea gorgonian Subergorgia suberosa” (J Nat Prod, 2008)
